Test results taken from patent publication US4990538A, “Use of toremifene and its metabolites for the reversal of multidrug resistance of cancer cells against cytotoxic drugs” (priority 1989, dated 1991).
Entries after “also recorded” stand apart in the source; their conditions may differ.

Legend:
[1] = tested on: α1 -acid glycoprotein (AAG); settings: cited from earlier work
in vitro [2] = settings: hamster, cho-adr cells
Procedure: (§4) Initial cell growth studies were carried out to investigate the effect of combination toremifene +doxorubicin in doxorubicin sensitive and resistant cells. Cell cultures were carried out using wild type CHO-K1 cells as well as CHO-Adr cells, the latter being selected by a series of step-wise selections of doxorubicin resistant clones in presence of 0.4 ug/ml of doxorubicin. […] The resistant cells were stable in cell culture in the absence of doxorubicin. Both cell lines were cultivated in Hams F10 medium supplemented with 5% newborn calf serum, 5% foetal calf serum, antibiotics and 3mM glutamine. The cells were maintained as monolayer cultures 37° C. under 5% CO2. Drug sensitivity in CHO-K1and CHO-Adr cells was assessed by a semi-automated colorimetric MTT assay. The assay is dependent on the cellular reduction of MTT (3-U4,5-dimethylthiazol-2-ylA-2,5-diphenyl tertazolium bromide, thiazolyl blue) by the mitochondrial dehydrogenase of viable cells to a blue formazan product which was measured spectrophotometrically. The cells were seeded on 96-well plates and allowed to settle for 12 hours at 37° C. in 5% CO2. Appropriate drug concentrations diluted in growth medium were added for 24 hours. Toremifene was dissolved in 95% ethanol stock solution, doxorubicin stock solution was prepared in water. […] The cells were incubated with the drugs for 24 hours, after which the cells were washed twice with phosphate buffered saline before being placed in 200 μl fresh medium for a further 48 hours. At the end of this incubation 0.1 mg MTT was added to each well and incubated for 4 hours. The medium was carefully aspirated and the crystals were solubilised in 100 μ l DMSO (dimethyl sulfoxide). Absorbances at 540 nm were read immediately on an ELISA Multiskan reader. The results were expressed as a percentage of absorbance of drug treated cells compared to controls.
(§5) The effect of AAG in the concentration of 0.1 to 2 mg/ml was assessed on the potentiation produced by toremifene.

[3] = cited from earlier work
MCF-7/DOX = assay: Sensitization of MCF-7/DOX by patients' plasma ultrafiltrate; assay type: cell-based, human; settings: FIG. 8
Procedure: Cells were growth in Corning 75-cm^2 tissue flasks and were maintained in exponential growth using RPMI 1640 medium supplemented with 5% fetal bovine serum in 5% CO2 and 95% air. […] The cells were cultivated in 100 ul volumes in 96-well microtiter plates. The principle of the method was to cultivate cells in the presence of the drugs/ drug combinations for 48 hours. After this time the living cells were stained with methylene blue and quantitated spectrophotometrically using microtiter plate reader (Titertek Model MCC/340) interfaced to an Apple IIe computer. Inhibition of the cell growth is expressed as a percentage of absorbance of vehicle treated control cultures. Human plasma samples were obtained from patients participating clinical phase I studies receiving 10, 20, 40, 60, 200 or 400 mg toremifene daily for eight weeks. Ultrafiltrate from the plasma was prepared by placing plasma specimens in Amicon CF-10 filters (MW cutoff 10 000) followed by centrifugation at 5000×g for 20 minutes. The ultrafiltrates were used in order to study if the concentrations achieved clinically were able to sensitize MCF-7/DOX. Part of the growth medium was replaced by plasma ultrafiltrate and the cells were allowed to grow for 4 days, at which time they were stained and quantitated as described above.

CHO-K1 cells [4] = assay: Doxorubicin transport (accumulation) in CHO-K1 cells; assay type: cell-based; settings: 2 μM toremifene; 1 μM doxorubicin; wild-type CHO-K1
MCF-7/DOX cells = assay: Inhibition of cell growth / reversal of MDR in MCF-7/DOX cells (methylene blue); assay type: cell-based, human; settings: for Inhibition of cell growth, Actual: 2880 min
Procedure: The cells were cultivated in 100 ul volumes in 96-well microtiter plates. The principle of the method was to cultivate cells in the presence of the drugs/ drug combinations for 48 hours. After this time the living cells were stained with methylene blue and quantitated spectrophotometrically using microtiter plate reader (Titertek Model MCC/340) interfaced to an Apple IIe computer. Inhibition of the cell growth is expressed as a percentage of absorbance of vehicle treated control cultures.

HOV-018 = assay: Number of living cells (bioluminescence), ovarian cancer line HOV-018; settings: doxorubicin 0 μg/ml
Procedure: (§1) Two human ovarian cell lines were established in vitro from fresh serous ovarian cancer tissues. The lines are coded HOV-007 and HOV-018. The cells were cultivated in Eagle's MEM containing 1% unstripped foetal calf serum. The assays were carried out at 37° C. in 5% CO2 on 96 well plates.

Lewis Lung (LL) tumor = assay: Schedule dependency of antitumor effect in Lewis Lung tumor; settings: toremifene 150 mg/kg p.o. days 1-5
Procedure: (§2) Lewis Lung (LL) or melanoma B-16 tumor cells, 2×10^6 cells/animal, were inoculated intramuscularly to female C-57 mice. Tumors were allowed to grow to the mean diameter of 1.5 cm after which toremifene/doxorubicin treatments were started as indicated in the next tables. Tumor size was measured before treatment and after 10 days in 2 dimensions and the mean was considered as tumor diameter. Weight of the animals was also recorded.

B-16 melanoma = assay: Schedule dependency of antitumor effect in B-16 melanoma; settings: toremifene 150 mg/kg p.o. days 1-5
Procedure: as §2

in vitro [5] = settings: hamster, cho-k1 cells
Procedure: as §4, §5

HOV-007 = assay: Number of living cells (bioluminescence), ovarian cancer line HOV-007; settings: doxorubicin 0 μg/ml, 3 days
Procedure: as §1
presented. Number of cells was quantitated after 3 days'

[6] = mouse, in vivo
Procedure: (§3) Pieces of fresh human tumors were implanted under the outer capsule of mouse kidney. Mice were treated with different combinations of cytotoxic drugs (doses preselected according to toxicity of each combination), with or without toremifene (150 mg/kg p.o.). Control animals received saline injections. The drugs were given on five consecutive days after the inoculation of the tumors. The sizes of the tumor pieces were measured by stereo microscope equipped with ocular micrometer immediately after inoculation (initial size) and on the sixth day when the animals were killed (final size). The difference final size - initial size describes the growth or regression of the tumor. The measuring unit was ocular micrometer unit (omu). 10 omu is identical to 1.0 mm. In addition to the tumor size, the weight gain of the animals was measured. The weight gain describes the toxicity of the treatment. In general, the ratio final weight/ pretest weight should be more than 0.80. Otherwise the toxicity is considered unacceptable.

Ovarian ca. = settings: subrenal capsule assay, all tumor types
Procedure: as §3

CHO-K1 cells [7] = assay: MTT cell viability assay in wild-type CHO-K1 cells
Procedure: as §4, §5

CHO-Adr cells = assay: MTT cell viability assay in doxorubicin resistant CHO-Adr cells
Procedure: as §4, §5

Human melanoma UV-me-1 = assay: Toremifene and doxorubicin in human melanoma UV-me-1; settings: doxorubicin 0 μg/ml, 2 days, control 100
[8] = drug 3.0 μg/ml +1 μM doxorubicin

CN(C)CCOc1ccc(/C(=C(/CCCl)c2ccccc2)c2ccccc2)cc1 [toremifene]
Binding to α1-acid glycoprotein [1]: bound in some extent
MCC at 24 h (in vitro [2]): > 10 µM
Safety / toxicity in clinical use ([3]; at dose levels or concentrations required for MDR reversal): very safe drug
maximal tolerated dose ([3]; clinical phase I trials): 400 to 600 mg daily
MDR reversing effect in patients' sera (MCF-7/DOX): A clear concentration-dependency
Drug accumulation of doxorubicin (CHO-K1 cells [4]): enhanced drug accumulation
Effectiveness in reversing MDR (MCF-7/DOX cells; MCF-7/DOX cells, Table 5 and FIG. 7): almost equally effective
Inhibition of cell growth, Actual (MCF-7/DOX cells; [8]): 38 % control
Potential (potentiation of doxorubicin activity) (MCF-7/DOX cells; [8]): 58 % control
Inhibition of cell growth, Actual (MCF-7/DOX cells; drug […] +1 μM doxorubicin): 31 % control
Potential (potentiation of doxorubicin activity) (MCF-7/DOX cells; drug […] +1 μM doxorubicin): 48 % control
Number of living cells (HOV-018; toremifene 1.0 μM, 4320 min): 104% of control values
Number of living cells (HOV-018; toremifene 3.0 μM): 99% of control values
Number of living cells (HOV-018; toremifene 10.0 μM, 4320 min): 97% of control values
Change of tumor diameter (Lewis Lung (LL) tumor): +5.4 mm
Change of tumor size (B-16 melanoma): +3.2 mm
MCC at 24 h (in vitro [5]): > 10 µM
Number of living cells (HOV-007; toremifene 1.0 μM): 95% of control values
Number of living cells (HOV-007; toremifene 3.0 μM): 71% of control values
Number of living cells (HOV-007; toremifene 10.0 μM): 66% of control values
Effect of toremifene addition on weight gain [6]: not influenced by toremifene addition
Sensitivity to cytotoxic drugs in human tumors (Ovarian ca.): can increase the sensitivity to cytotoxic drugs in human tumors
Effect of AAG on toremifene toxicity (CHO-K1 cells [7]; AAG 2 mg/ml): protected both cell lines from toremifene toxicity
Effect of toremifene on doxorubicin toxicity at highest AAG level (CHO-K1 cells [7]; AAG 2 mg/ml): cell viability was no different from that when doxorubicin alone was present; also recorded: no longer any effect of toremifene on doxorubicin toxicity
AAG concentration above which potentiation by toremifene is gradually reversed (CHO-K1 cells [7]; doxorubicin + 10 μM toremifene): above 0.5 mg/ml
Potentiation of doxorubicin toxicity (CHO-K1 cells [7]; toremifene 1 to 10 μM): incremental potentiation of doxorubicin toxicity
Potentiation of doxorubicin toxicity (CHO-Adr cells; CHO-Adr): the degree of potentiation was greater
Relative potentiation of doxorubicin toxicity, resistant vs wild-type (CHO-Adr cells; CHO-Adr vs CHO-K1, increasing concentrations of toremifene): far greater in the CHO-Adr cell line than in the parent cell line; also recorded: greater for the resistant than the wild-type cells
Effect of AAG on toremifene toxicity (CHO-Adr cells; CHO-Adr, AAG 2 mg/ml): protected both cell lines from toremifene toxicity
Effect of toremifene on doxorubicin toxicity at highest AAG level (CHO-Adr cells; CHO-Adr, AAG 2 mg/ml): cell viability was no different from that when doxorubicin alone was present; also recorded: no longer any effect of toremifene on doxorubicin toxicity
AAG concentration above which potentiation by toremifene is gradually reversed (CHO-Adr cells; CHO-Adr, doxorubicin + 10 μM toremifene): above 0.5 mg/ml
Increase of sensitivity to doxorubicin (CHO-Adr cells; CHO-K1 and CHO-Adr, toremifene concentrations not inhibiting cell growth on their own): can be increased by toremifene concentrations which do not inhibit cell growth on their own
Toremifene and doxorubicin in UV-me-1 (living cells) (Human melanoma UV-me-1; toremifene 0.5 μM): 97
Toremifene and doxorubicin in UV-me-1 (living cells) (Human melanoma UV-me-1; toremifene 5.0 μM): 32
